Test results taken from paper PMC12316891, “A bottom-up approach to find lead compounds in expansive chemical spaces” (Communications Chemistry, 2025).
pKi: −log10 of the molar value.

What was measured:
His6-BRD4 (BD1) = target: T1, His6-BRD4 (BD1) (Homo sapiens, UniProt O60885); assay: Surface plasmon resonance (SPR) single-dose screening; assay type: binding; settings: SPR, compound 10 µM, 1% DMSO, n = 2, decimal comma
T1 construct: A pET28 plasmid containing residues 44–168 of BRD4 (BD1), a 6xHis tag, a TEV protease cleavage site; made in house; host or cells: E. coli Rosetta (D3)

BRD4 (BD1) = target: T2, BRD4 (BD1) (Homo sapiens, UniProt O60885); settings: advanced BRD4 (BD1) drug; cited from earlier work
T2 construct: A pET28 plasmid containing residues 44–168 of BRD4 (BD1), a 6xHis tag, a TEV protease cleavage site; 6xHis (N, cleaved yes); made in house; host or cells: E. coli Rosetta (D3)

CCS(=O)(=O)Nc1ccc(Oc2ccc(F)cc2F)c(-c2cn(C)c(=O)c3[nH]ccc23)c1 [Compound 1, CCS(=O)(=O)NC1=CC(=C(C=C1)OC2=C(C=C(C=C2)F)F)C3=CN(C(=O)C4=C3C=CN4)C, reference compound]
RUs at [10 µM] (His6-BRD4 (BD1)): 116,86 ± 26,64 RUs | pKi (BRD4 (BD1)): 7.96
